# Data as given in patent publication US20100034867A1, “DRUG DELIVERY COATING FOR USE WITH A MEDICAL DEVICE AND METHODS OF TREATING VASCULAR INJURY” (ATRIUM MEDICAL CORPORATION, priority 2005, published 2010).
# Like-named read-outs stand apart in the source and are kept apart here.
# What was measured:
# rabbit illiac arteries [1] = conditions: in vivo
# Method: The Atrium Flyer is compared with bare metal stents, the Atrium Flyer coated with ALPHA-3 without drugs, and Cypher™ drug eluting stent. Histomorphic and histopathologic analyses are then performed.
# rabbit's iliac vessel = experiment: Rapamycin drug eluting stents in rabbit iliac vessel (inflammation, overlapping stents); format: in vivo
# Source text: The inventors postulate, based on these animal study results, that one consequence of these types of drugs is retarded endothelial cell coverage, and that current drug eluting stents promote more chronic inflammation than would normally be present with a non drug eluting bare metal stent.
# rabbit illiac arteries [2] = experiment: Methylprednisolone/Cilostazol/Paclitaxel/Taxus study: stents implanted in rabbit iliac arteries for 28 days, histomorphic and histopathologic analyses; conditions: for reduction in neointima (in words): coated stents; for EEL Area / IEL Area / Intimal Area / Lumen Area / Stenosis: ALPHA-3 coated Atrium Flyer stent, mean ± SD
# rabbit illiac arteries [3] = conditions: in vivo, 28 days
# rabbit iliacs = experiment: Local delivery of calcineurin inhibiting compounds after vascular injury in rabbit iliacs; format: in vivo
# Source text: Studies in rabbit iliacs following vascular injury conducted by and/or on behalf of the inventors show the benefits of using calcineurin inhibiting compounds like Tacrolimus, Cyclosporin A (CsA) and Cyclosporin derivatives, in small animals like the rat, and in rabbits. […] Such vascular injury and sirolimus medicated inflammation can be characterized as having excessive giant cell formation and esinophil propagation.
compound,measurement,setting,value
CO[C@H]1C[C@@H]2CC[C@@H](C)[C@@](O)(O2)C(=O)C(=O)N2CCCC[C@H]2C(=O)O[C@H]([C@H](C)C[C@@H]2CC[C@@H](O)[C@H](OC)C2)CC(=O)[C@H](C)/C=C(\C)[C@@H](O)[C@@H](OC)C(=O)[C@H](C)C[C@H](C)/C=C/C=C/C=C/1C [Sirolimus],tolerability of the coated stent,rabbit illiac arteries [1],"well tolerated, producing no adverse reaction"
same,inflammatory response around the drug eluting stent,rabbit's iliac vessel; rabbit iliacs,presence of numerous giant cells and esinophils
same,inflammation induced by the overlapping drug coating,rabbit's iliac vessel; two separate drug eluting stents overlapping in rabbit iliac vessel,increases nearly two fold
same,arterial healing compared with Taxus Express,"rabbit illiac arteries [2]; Atrium stents, high dose",(greater) arterial healing at 28 days compared with Taxus™ Express
O=C1CCc2cc(OCCCCc3nnnn3C3CCCCC3)ccc2N1 [Cilostazol],Fibrin Score,rabbit illiac arteries [3],0
same,reduction in neointima (in words),rabbit illiac arteries [2],No reduction in neointima
C=CC[C@@H]1/C=C(\C)C[C@H](C)C[C@H](OC)[C@H]2O[C@@](O)(C(=O)C(=O)N3CCCC[C@H]3C(=O)O[C@H](/C(C)=C/[C@@H]3CC[C@@H](O)[C@H](OC)C3)[C@H](C)[C@@H](O)CC1=O)[C@H](C)C[C@@H]2OC [Tacrolimus],inflammation following vascular injury,rabbit iliacs,effectively reduce inflammation following vascular injury
CC(=O)O[C@H]1C(=O)[C@@]2(C)[C@H]([C@H](OC(=O)c3ccccc3)[C@]3(O)C[C@H](OC(=O)[C@H](O)[C@@H](NC(=O)c4ccccc4)c4ccccc4)C(C)=C1C3(C)C)[C@]1(OC(C)=O)CO[C@@H]1C[C@@H]2O [Paclitaxel],Fibrin Score,rabbit illiac arteries [3],0
same,arterial healing compared with Taxus Express,rabbit illiac arteries [3],(greater) arterial healing at 28 days compared with Taxus™ Express
same,in-stent neointimal growth (in words),"rabbit illiac arteries [2]; Atrium stents, high dose",suppresses in-stent neointimal growth at 28 days similarly to the Taxus™ Express stent
C[C@H]1C[C@@H]2[C@H]([C@@H](O)C[C@@]3(C)[C@H]2CC[C@]3(O)C(=O)CO)[C@@]2(C)C=CC(=O)C=C12 [Methylprednilsolone],EEL Area,rabbit illiac arteries [2]; high dose,5.50 ± 0.26 mm^2
same,IEL Area,rabbit illiac arteries [2]; high dose,5.25 ± 0.24 mm^2
same,Intimal Area,rabbit illiac arteries [2]; high dose,1.165 ± 0.231 mm^2
same,Lumen Area,rabbit illiac arteries [2]; high dose,4.08 ± 0.21 mm^2
same,Stenosis,rabbit illiac arteries [2]; high dose,22.2 ± 1.4%
same,EEL Area,rabbit illiac arteries [2]; low dose,5.90 ± 0.92 mm^2
same,IEL Area,rabbit illiac arteries [2]; low dose,5.62 ± 0.90 mm^2
same,Intimal Area,rabbit illiac arteries [2]; low dose,1.054 ± 0.923 mm^2
same,Lumen Area,rabbit illiac arteries [2]; low dose,4.42 ± 0.82 mm^2
same,Stenosis,rabbit illiac arteries [2]; low dose,21.5 ± 4.7%
same,EEL Area,rabbit illiac arteries [2]; mid-dose,5.68 ± 0.34 mm^2
same,IEL Area,rabbit illiac arteries [2]; mid-dose,5.40 ± 0.30 mm^2
same,Intimal Area,rabbit illiac arteries [2]; mid-dose,1.247 ± 0.136 mm^2
same,Lumen Area,rabbit illiac arteries [2]; mid-dose,4.16 ± 0.40 mm^2
same,Stenosis,rabbit illiac arteries [2]; mid-dose,23.1 ± 2.2%
same,reduction in neointima (in words),rabbit illiac arteries [2],No reduction in neointima
